In ChEMBL document CHEMBL3091383, “Sorbicillamines A-E, nitrogen-containing sorbicillinoids from the deep-sea-derived fungus Penicillium sp. F23-2” (J Nat Prod, 2013):

Columns and labels:
[1] = tested on: P388; test: Cytotoxicity against mouse P388 cells by SRB assay; format: functional, cell-based
[2] = tested on: HeLa; test: Cytotoxicity against human HeLa cells by MTT assay; format: functional, cell-based
[3] = Cytotoxicity against human Bel7402 cells by MTT assay; format: functional, cell-based; conditions: Bel-7402
[4] = tested on: HEK293; test: Cytotoxicity against HEK293 cells by MTT assay; format: cell-based; conditions: Homo sapiens
[5] = tested on: HCT-116; test: Cytotoxicity against human HCT116 cells by MTT assay; format: functional, cell-based

Measured: IC50

C/C=C/C=C/C(O)=C1\C(=O)[C@]2(C)C(=O)C(C)(O)[C@H]1[C@H](C(=O)C1=C(N)[C@](C)(O)[C@]3(O)O[C@]4(C)C(O)=C(C)C(=O)\C(=C(O)/C=C/C=C/C)[C@@H]4[C@]3(C)C1=O)[C@H]2/C=C/C (stereo not given in full)
> 10 µM: [1] | [2] | [3] | [4] | [5]

C/C=C/C=C/C(O)=C1/C(=O)C(C)=C(O)[C@@]2(C)O[C@@]3(O)[C@@](C)(O)C4=C(C(=O)C[C@H](/C=C/C)N4)C(=O)[C@@]3(C)[C@@H]12
> 10 µM: [1] | [2] | [3] | [4] | [5]

C/C=C/C=C/C(O)=C1/C(=O)C(C)=C(O)[C@@]2(C)O[C@@]3(O)[C@@](C)(O)C4=C(C(=O)C[C@@H](/C=C/C)N4)C(=O)[C@@]3(C)[C@@H]12
> 10 µM: [1] | [2] | [3] | [4] | [5]

C/C=C/C=C/C(=O)C1=C(N)[C@](C)(O)[C@]2(O)O[C@]3(C)C(O)=C(C)C(=O)/C(=C(O)/C=C/C=C/C)[C@@H]3[C@]2(C)C1=O
> 10 µM: [1] | [2] | [3] | [4] | [5]

C/C=C/C=C/C(=O)C1=C(O)[C@]2(C)C(=O)[C@@](C)(O)[C@H]1N1CCC[C@@H]12
> 10 µM: [1] | [2] | [3] | [4] | [5]
